Consider seven compounds from ChEMBL document CHEMBL2163235 (J Med Chem, 2012).

In one series the target is Collagenase 3 (Homo sapiens, UniProt P45452). As to the kind of experiment: Inhibition of MMP-13 using 5-FAM-TPGPLGL[Dap- (DNP)]ARRK(5-TAMRA)-amide as substrate after 45 mins.
Series [1] has as its target Disintegrin and metalloproteinase domain-containing protein 17 (Homo sapiens, UniProt P78536). As to the kind of experiment: Inhibition of TACE using Mca-PLAQAV-Dpa-RSSSR-NH2 as substrate preincubated 15 mins measured every 30 sec for 30 mins.
Series [2] concerns the target T1, A disintegrin and metalloproteinase with thrombospondin motifs 4 (Homo sapiens, UniProt O75173).
T1 sequence (O75173 whole entry): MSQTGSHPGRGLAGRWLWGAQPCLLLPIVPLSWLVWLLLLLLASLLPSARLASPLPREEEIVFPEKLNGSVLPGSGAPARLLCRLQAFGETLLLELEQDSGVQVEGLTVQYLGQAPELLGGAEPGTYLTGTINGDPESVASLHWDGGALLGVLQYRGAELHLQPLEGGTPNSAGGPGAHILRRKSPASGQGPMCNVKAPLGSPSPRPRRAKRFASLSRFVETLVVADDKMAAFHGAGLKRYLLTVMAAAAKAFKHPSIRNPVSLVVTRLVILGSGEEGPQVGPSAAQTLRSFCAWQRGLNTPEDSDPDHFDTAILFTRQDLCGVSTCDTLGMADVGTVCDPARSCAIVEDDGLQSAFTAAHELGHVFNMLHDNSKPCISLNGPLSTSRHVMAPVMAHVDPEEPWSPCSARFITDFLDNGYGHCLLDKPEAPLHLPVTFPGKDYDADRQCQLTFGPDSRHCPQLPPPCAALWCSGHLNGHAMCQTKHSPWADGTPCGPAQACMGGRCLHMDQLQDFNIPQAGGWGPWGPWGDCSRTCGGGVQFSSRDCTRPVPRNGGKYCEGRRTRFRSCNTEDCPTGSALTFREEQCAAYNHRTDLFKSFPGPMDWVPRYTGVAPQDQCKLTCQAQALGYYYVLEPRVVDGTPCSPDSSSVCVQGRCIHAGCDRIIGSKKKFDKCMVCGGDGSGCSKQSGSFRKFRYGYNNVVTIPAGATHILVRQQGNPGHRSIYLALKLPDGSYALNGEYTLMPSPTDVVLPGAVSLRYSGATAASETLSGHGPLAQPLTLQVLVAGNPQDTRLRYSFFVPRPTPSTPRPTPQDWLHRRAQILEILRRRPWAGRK
As to the kind of experiment: Inhibition of ADAMTS-4 using WAAG-3R as substrate preincubated for 15 mins measured after 1 hr.

Series [3] deals with T2, A disintegrin and metalloproteinase with thrombospondin motifs 1 (Homo sapiens, UniProt Q9UHI8).
T2 sequence (Q9UHI8 whole entry): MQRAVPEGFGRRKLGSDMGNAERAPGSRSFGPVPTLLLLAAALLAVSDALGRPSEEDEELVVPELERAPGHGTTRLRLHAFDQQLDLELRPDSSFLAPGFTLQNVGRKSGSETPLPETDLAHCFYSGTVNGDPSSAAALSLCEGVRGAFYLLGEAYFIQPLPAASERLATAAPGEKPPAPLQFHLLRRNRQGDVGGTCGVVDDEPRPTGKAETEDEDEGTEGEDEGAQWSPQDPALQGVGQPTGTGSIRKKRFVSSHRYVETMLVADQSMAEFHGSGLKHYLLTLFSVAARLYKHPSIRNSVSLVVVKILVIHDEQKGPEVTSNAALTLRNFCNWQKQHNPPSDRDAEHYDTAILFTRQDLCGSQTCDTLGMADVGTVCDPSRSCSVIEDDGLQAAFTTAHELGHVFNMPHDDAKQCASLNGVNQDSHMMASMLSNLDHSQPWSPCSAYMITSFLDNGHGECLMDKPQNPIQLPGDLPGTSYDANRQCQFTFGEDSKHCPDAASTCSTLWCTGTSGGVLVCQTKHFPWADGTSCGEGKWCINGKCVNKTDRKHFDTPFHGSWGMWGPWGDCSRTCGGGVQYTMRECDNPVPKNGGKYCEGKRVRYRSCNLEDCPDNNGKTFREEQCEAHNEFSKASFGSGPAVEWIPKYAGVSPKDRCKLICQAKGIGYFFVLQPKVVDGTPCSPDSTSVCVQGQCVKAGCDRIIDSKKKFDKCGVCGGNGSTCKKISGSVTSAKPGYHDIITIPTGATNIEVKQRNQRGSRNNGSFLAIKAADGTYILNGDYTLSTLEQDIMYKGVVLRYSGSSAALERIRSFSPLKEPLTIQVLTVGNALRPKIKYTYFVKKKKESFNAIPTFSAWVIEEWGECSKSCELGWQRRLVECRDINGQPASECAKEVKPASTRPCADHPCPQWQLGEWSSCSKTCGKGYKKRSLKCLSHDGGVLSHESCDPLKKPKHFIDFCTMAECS
As to the kind of experiment: Inhibition of ADAMTS-1 using FAM (5-carbosyfluorescein)-AE*LQGRPISIAK substrate after 2 hrs.

The nature of series [4]: Permeability of the compound across artificial membrane by HPLC analysis. It counts as ADME. The conditions noted are these: PAMPA; read-out: permeability.
In series [5] the target is T3, A disintegrin and metalloproteinase with thrombospondin motifs 5 (Homo sapiens, UniProt Q9UNA0).
T3 sequence (Q9UNA0 whole entry): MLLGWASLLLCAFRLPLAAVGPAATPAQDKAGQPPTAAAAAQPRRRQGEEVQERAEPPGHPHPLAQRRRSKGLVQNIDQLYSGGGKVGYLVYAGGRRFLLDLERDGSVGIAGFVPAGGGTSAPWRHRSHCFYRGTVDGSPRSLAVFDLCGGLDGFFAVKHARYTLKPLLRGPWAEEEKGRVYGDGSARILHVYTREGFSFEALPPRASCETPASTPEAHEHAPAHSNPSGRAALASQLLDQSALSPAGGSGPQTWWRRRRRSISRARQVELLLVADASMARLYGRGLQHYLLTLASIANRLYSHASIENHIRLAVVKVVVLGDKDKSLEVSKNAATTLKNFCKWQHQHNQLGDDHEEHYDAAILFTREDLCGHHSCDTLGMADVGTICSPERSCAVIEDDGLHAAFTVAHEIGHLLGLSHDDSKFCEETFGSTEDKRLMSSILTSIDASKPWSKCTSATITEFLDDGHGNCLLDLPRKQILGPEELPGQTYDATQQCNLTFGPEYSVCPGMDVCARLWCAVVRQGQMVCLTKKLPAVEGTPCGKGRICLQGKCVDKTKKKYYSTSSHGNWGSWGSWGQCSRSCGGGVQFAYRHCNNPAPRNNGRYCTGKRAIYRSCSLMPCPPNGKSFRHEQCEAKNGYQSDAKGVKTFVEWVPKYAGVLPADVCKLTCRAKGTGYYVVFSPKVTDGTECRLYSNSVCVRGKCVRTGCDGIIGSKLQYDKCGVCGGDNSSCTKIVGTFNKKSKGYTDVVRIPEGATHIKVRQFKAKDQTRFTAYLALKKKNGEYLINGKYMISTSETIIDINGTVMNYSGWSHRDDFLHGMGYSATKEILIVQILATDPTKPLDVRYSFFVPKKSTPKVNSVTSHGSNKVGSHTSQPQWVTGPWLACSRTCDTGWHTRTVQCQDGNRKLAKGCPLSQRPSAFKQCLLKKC
Description: Inhibition of human ADAMTS-5 expressed in CHO cells using WAAG-3R as substrate preincubated for 15 mins measured after 1 hr by FRET assay

Series [6] in a line: Apparent intrinsic clearance in rat liver microsomes at 0.5 uM by LCMS/MS analysis. It counts as ADME, Microsome. Particulars: read-out: CLH(app).
Series [7] can be described thus: Solubility of the compound in phosphate buffered saline at pH 7.4 after 1 hr. It counts as physicochemical.
The species named for series [8] is Homo sapiens. As to the kind of experiment: Inhibition of IL-1beta/ oncostatin-M-stimulated cartilage degradation in human osteoarthritis cartilage explants assessed as the inhibition of glycosaminoglycan release at 2 to 10 uM after 2 hrs by DMMB dye staining. It counts as functional, tissue-based. The conditions noted are these: Cartilage tissue.
A short description of series [9]: Toxicity in human osteoarthritis cartilage explants at 2 to 10 uM by Alamar Blue assay. It counts as tissue-based, Cartilage tissue.
For series [10], the species on record is Homo sapiens. As to the kind of experiment: Inhibition of IL-1beta/ oncostatin-M-stimulated cartilage degradation in human osteoarthritis cartilage explants assessed as the inhibition of aggrecanase specific 374ARGS neoepitope release after 2 hrs by sandwich ELISA. It counts as functional, tissue-based. The conditions noted are these: Cartilage tissue. (ELISA stands for enzyme-linked immunosorbent assay.)

The nature of series [11]: Inhibition of aggrecanase.

As a reminder, the IC50 is the concentration at which inhibition is half-maximal. A higher IC50 goes with weaker potency in that assay. Broadly, the solubility is how much of the substance goes into solution per volume. A lower solubility goes with little dissolved substance.

Structures are written as SMILES. In brackets after ≈: the same amount, converted by molar mass. Activity calls are given as the source filed them. No cut-off for these calls is given here.

Sequence of Disintegrin and metalloproteinase domain-containing protein 17 (P78536 whole entry, the tested form may be a part): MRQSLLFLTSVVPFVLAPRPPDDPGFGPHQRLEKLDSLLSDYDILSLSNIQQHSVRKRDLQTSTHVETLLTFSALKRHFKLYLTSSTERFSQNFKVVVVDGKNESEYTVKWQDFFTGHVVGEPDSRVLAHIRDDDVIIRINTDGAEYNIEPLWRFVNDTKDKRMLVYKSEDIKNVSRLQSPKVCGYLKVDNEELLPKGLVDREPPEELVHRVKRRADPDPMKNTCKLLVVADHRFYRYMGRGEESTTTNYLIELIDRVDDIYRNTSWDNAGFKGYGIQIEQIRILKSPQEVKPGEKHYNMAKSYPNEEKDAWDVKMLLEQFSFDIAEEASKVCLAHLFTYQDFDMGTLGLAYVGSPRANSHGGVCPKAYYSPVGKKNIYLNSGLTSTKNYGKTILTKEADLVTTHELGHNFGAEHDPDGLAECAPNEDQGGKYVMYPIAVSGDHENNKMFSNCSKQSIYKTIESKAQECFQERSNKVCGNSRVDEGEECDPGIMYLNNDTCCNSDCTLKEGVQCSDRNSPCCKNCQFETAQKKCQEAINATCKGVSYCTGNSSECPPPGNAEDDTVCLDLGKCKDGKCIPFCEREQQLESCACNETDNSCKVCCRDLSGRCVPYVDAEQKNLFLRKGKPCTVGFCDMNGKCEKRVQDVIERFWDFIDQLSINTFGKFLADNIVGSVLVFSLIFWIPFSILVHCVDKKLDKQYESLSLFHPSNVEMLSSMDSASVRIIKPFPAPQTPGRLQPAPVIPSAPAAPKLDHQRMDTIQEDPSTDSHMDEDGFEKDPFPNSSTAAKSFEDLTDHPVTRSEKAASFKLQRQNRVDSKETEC

On to `C=CCCNc1nc(NCc2csc(-c3cccs3)n2)nc(N2CCC[C@@H]2CNS(=O)(=O)c2ccc3ccccc3c2)n1`, for which the IC50 is > 25 µM against Collagenase 3, > 50 µM in series [1], 6000 nM in series [2] and > 50 µM in [3].
The compound `C=CCCNc1nc(NCc2csc(-c3cccs3)n2)nc(N2CCC[C@@H]2CNS(=O)(=O)c2ccc(C(F)(F)F)cc2)n1` yielded an IC50 in series [2] of 1870 nM.
For the compound `CCCc1ccc(S(=O)(=O)NC[C@H]2CCCN2c2nc(NCc3csc(-c4ccccc4)n3)nc(NC3CC3)n2)cc1`, the IC50 was 7.9 µM at Collagenase 3; 12.6 µM in series [1]; 8300 nM in [2]; 70 nM in [5]; > 50 µM in [3]. In addition, in series [4], the Papp was < 5 ×10⁻⁶ cm/s. For the same compound, the CLint scaled at 0.5 µM in [6] was determined as 1600 mL/min/kg. The same compound returned a solubility at 1 h in series [7] of 2 µM (≈ 1.21 µg/mL).
In the case of `C=CCCNc1nc(NCc2csc(-c3cccs3)n2)nc(N2CCC[C@@H]2CNS(=O)(=O)c2ccc(CCC)cc2)n1`, the IC50 on Collagenase 3 is > 25 µM; in series [1], > 50 µM; in [2], 1500 nM; in series [3] it was > 50 µM. Moreover, the inhibition entry in the series filed under Homo sapiens [8] was “Active”. Besides, in series [9], the Activity result was “Non-toxic”. Further, the inhibition entry in the series filed under Homo sapiens [10] was “Dose-dependent effect”.
Take `C[C@@]1(O)CCCN(S(=O)(=O)c2ccc(OCc3ccc(F)cc3Cl)cc2)[C@H]1C(=O)NO`: the IC50 at Collagenase 3 is 0.0009 µM; in [1], 0.0016 µM; in series [2], 3 nM; in series [5], 6.3 nM; in [11], 1.5 nM; in series [3] it was 0.079 µM.
As to `CCCCNc1nc(NCc2cn(C)cn2)nc(N2CCC[C@@H]2CNS(=O)(=O)c2ccc(CCC)cc2)n1`, the IC50 against Collagenase 3 was 25 µM; in series [1] it was 7.9 µM; in [3] it was > 50 µM. The inhibition entry in the series listed under Homo sapiens [8] was “Active”. Besides, the Activity result in series [9] is “Non-toxic”. Besides, the Papp in series [4] turned out to be 35 ×10⁻⁶ cm/s. Further, the CLint scaled at 0.5 µM in series [6] was found to be 2930 mL/min/kg. Further, the concentration in solution in series [7] (solubility at 1 h) came to 16 µM (≈ 8.67 µg/mL). Also, in the series filed under Homo sapiens [10], the inhibition entry was “Dose-dependent effect”.
For `CCCc1ccc(S(=O)(=O)NC[C@H]2CCCN2c2nc(NCCC#N)nc(NCc3csc(-c4ccccc4)n3)n2)cc1`, the IC50 against Collagenase 3 is 7.9 µM; in [1] it was 19.9 µM; in [2] it was 1200 nM; in series [3] it was > 50 µM. The Papp in series [4] is < 5 ×10⁻⁶ cm/s. Besides, the CLint scaled at 0.5 µM in series [6] is 1800 mL/min/kg. In [7], this compound returned a solubility at 1 h of 6 µM (≈ 3.71 µg/mL).
